In patent publication US11883398B2, “Dipeptidylpeptidase 4 inhibition enhances lymphocyte trafficking, improving both naturally occurring tumor immunity and immunotherapy” (INSTITUT PASTEUR, priority 2015, dated 2024):
Entries after “also recorded” stand apart in the source; their conditions may differ.

Columns and labels:
B16F10 cells = assay: Model of metastatic melanoma (intravenous B16F10, lung metastatic foci); format: in vivo, mouse; details: 15 days after intravenous injection of B16F10 cells
Method: B16F10 and M04 (Ovalbumin-expressing B16F10 cells, gift from C. Reis e Sousa) tumor cells were cultured in DMEM (Gibco) supplemented with 10% FCS (PAA), 0.1 mM non-essential amino acids, 1 mM sodium pyruvate, 10 mM Hepes, 70 μM beta-mercaptoethanol and 23 μg/ml gentamycin (all from Gibco). CT26 colon carcinoma cells were cultured in RPMI (Gibco) supplemented as described for DMEM. Cells for injections were passaged 1-2 times after thawing, before use. WT and genetically modified mice were subcutaneously injected with 2×10^5 B16 or 5×10^5 CT26 cells in the shaved right flank. When indicated, mice received an intra-tumoral injection of 1 μg of recombinant mCXCL10, 5 μg CpG-A in DOPTAP or vehicle control. […] Tumor height and width were measured with a caliper and tumor volume was calculated (Elliptical volume=width^2×height×0.523). […] 15 days after tumor cell injection, lungs were dissected, placed in Fekete's solution and metastatic foci were counted. […]

CT26 colon carcinoma = assay: Subcutaneous CT26 colon carcinoma tumor growth in vivo; set-up: species or system mouse
Method: Mice used were 7-12 weeks old. […] B16F10 and […] (Ovalbumin-expressing B16F10 cells, gift from C. Reis e Sousa) tumor cells were cultured in DMEM (Gibco) supplemented with 10% FCS (PAA), 0.1 mM non-essential amino acids, 1 mM sodium pyruvate, 10 mM Hepes, 70 μM beta-mercaptoethanol and 23 μg/ml gentamycin (all from Gibco). CT26 colon carcinoma cells were cultured in RPMI (Gibco) supplemented as described for DMEM. Cells for injections were passaged 1-2 times after thawing, before use. WT and genetically modified mice were subcutaneously injected with 2×10^5 B16 or 5×10^5 CT26 cells in the shaved right flank. […] For blocking of chemokine and chemokine receptors, WT mice were intraperitoneally injected with 100 μg of hamster a-mCXCR3 (clone CXCR3-173, BioLegend), 100 μg of hamster α-mCCR5 (clone HM-CCR5, BioLegend), 50 μg of rat anti-mCXCL10 (clone 134013, R&D systems) and 20 μg of rat-α-mCXCR4 (clone 2B11/CXCR4, BD Biosciences) or with respective isotype antibodies (hamster IgG (clone HTK888, BioLegend, used as control for mCXCR3 and mCCR5 blockage); rat IgG2a (clone 54447, R&D systems, used as control for mCXCL10 blockade) and rat IgG2b (clone A95-1, BD Biosciences, used as control for mCXCR4 blockade). […] Tumor height and width were measured with a caliper and tumor volume was calculated (Elliptical volume=width^2×height×0.523). […]

CT26 tumors = assay: Flow cytometry of leukocytes infiltrating CT26 tumors; format: in vivo, mouse; details: day 11, sitagliptin vs control
MEK1 induced skin tumors = details: Arwert and colleagues; cited from earlier work

N[C@@H](CC(=O)N1CCn2c(nnc2C(F)(F)F)C1)Cc1cc(F)c(F)cc1F [sitagliptin]
number of lung metastases (B16F10 cells): significantly reduced the number of lung metastases
CT26 tumor growth (CT26 colon carcinoma; BALB/c mice, sitagliptin vs control chow): marked delay of CT26 tumor growth; also recorded: delayed CT26 growth
CT26 tumor growth with CXCR3 blocking antibodies (CT26 colon carcinoma; anti-CXCR3 antibody, sitagliptin vs control): loss of protection
infiltration of lymphocytes, including T cell subsets and NK cells, into CT26 tumors (CT26 tumors): enhanced infiltration of lymphocytes
number of tumor associated B cells, eosinophils and CD25hi regulatory T cells in CT26 tumors (CT26 tumors): did not change
malignant transformation (MEK1 induced skin tumors): delays malignant transformation
